ChEMBL document CHEMBL5226286, “The application of isatin-based multicomponent-reactions in the quest for new bioactive and druglike molecules” (Eur J Med Chem, 2021)
Values after ≈ are worked out from the molar mass of the structure shown.

What was measured:
HepG2 [1] = test: Growth inhibition of human HepG2 cells at 20 micromol relative to control; assay type: functional; conditions: dose 20 µmol
HepG2 [2] = test: Antiproliferative activity against human HepG2 cells by MTT reduction assay; assay type: functional, cell-based
HeLa [3] = test: Growth inhibition of human HeLa cells at 20 micromol relative to control; assay type: functional; conditions: dose 20 µmol
MDA-MB-231 = test: Growth inhibition of human MDA-MB-231 cells at 20 micromol relative to control; assay type: functional; conditions: dose 20 µmol
DU-145 = test: Cytotoxicity against human DU-145 cells incubated for 48 hrs by MTT assay; assay type: functional, cell-based; conditions: DU-145, 48 h
HCT-116 [4] = test: Cytotoxicity against human HCT-116 cells; assay type: functional, cell-based
MDA-MB-435 = test: Antiproliferative activity against human MDA-MB-435 cells; assay type: functional, cell-based
SK-N-SH = test: Antiproliferative activity against human SK-N-SH cells by MTT reduction assay; assay type: functional, cell-based
[5] = molecular target: T1, NAD-dependent protein deacetylase sirtuin-2 (Homo sapiens, UniProt Q8IXJ6); test: Inhibition of sirtuin 2 (unknown origin)
T1 sequence (Q8IXJ6 whole entry): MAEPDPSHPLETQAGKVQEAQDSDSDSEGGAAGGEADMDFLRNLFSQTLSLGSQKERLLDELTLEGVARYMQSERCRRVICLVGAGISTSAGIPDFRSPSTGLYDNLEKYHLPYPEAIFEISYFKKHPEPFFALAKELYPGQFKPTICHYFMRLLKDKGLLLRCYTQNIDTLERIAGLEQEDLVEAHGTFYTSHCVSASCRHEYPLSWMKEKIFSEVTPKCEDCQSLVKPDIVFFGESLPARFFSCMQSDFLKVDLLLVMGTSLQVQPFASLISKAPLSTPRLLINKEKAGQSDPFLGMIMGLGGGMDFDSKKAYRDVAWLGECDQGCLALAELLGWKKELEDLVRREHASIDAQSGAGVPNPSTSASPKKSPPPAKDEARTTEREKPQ

K562 = test: Antiproliferative activity against human K562 cells; assay type: functional, cell-based
A549 [6] = test: Antiproliferative activity against human A549 cells; assay type: functional, cell-based
PC-3 = test: Antiproliferative activity against human PC-3 cells; assay type: functional, cell-based
[7] = Antiproliferative activity against human U87 cells; assay type: functional, cell-based, U-87MG ATCC; conditions: U-87 MG
Staphylococcus aureus = test: microbe, parasite or virus in culture
Description: Antibacterial activity against Staphylococcus aureus

Escherichia coli = test: microbe, parasite or virus in culture
Description: Antibacterial activity against Escherichia coli

Bacillus subtilis = test: Antibacterial activity against Bacillus subtilis; assay type: functional
Leishmania major = test: Antileishmanial activity against Leishmania major promastigotes incubated for 72 hrs by micrscopic analysis; assay type: functional
HeLa [8] = test: Cytotoxicity against human HeLa cells; assay type: functional, cell-based
MCF7 = test: Cytotoxicity against human MCF7 cells; assay type: functional, cell-based
A549 [9] = test: Cytotoxicity against human A549 cells; assay type: functional, cell-based
HCT-116 [10] = test: Antiproliferative activity against human HCT-116 cells; assay type: functional, cell-based
HepG2 [11] = test: cells; assay type: functional, cell-based; conditions: Homo sapiens
Proteus mirabilis = test: microbe, parasite or virus in culture; conditions: PTCC 1776
Description: Antimicrobial activity against Proteus mirabilis PTCC 1776 by broth disk diffusion microdilution method

[12] = tested on: Staphylococcus epidermidis; test: microbe, parasite or virus in culture; conditions: PTCC 1435
Description: Antimicrobial activity against Staphylococcus epidermidis PTCC 1435 by broth disk diffusion microdilution method

cells = assay type: functional, cell-based; conditions: Homo sapiens, HCCC9810
Description: Antiproliferative activity against human HCCC9810 cells

Huh-7 = test: cells; assay type: functional, cell-based; conditions: Homo sapiens
Description: Antiproliferative activity against human Huh-7 cells

Pseudomonas aeruginosa [13] = test: Antibacterial activity against Pseudomonas aeruginosa No.010; assay type: functional
Pseudomonas aeruginosa [14] = test: Antibacterial activity against multidrug resistant Pseudomonas aeruginosa 034; assay type: functional
Pseudomonas aeruginosa [15] = test: Antibacterial activity against Pseudomonas aeruginosa ATCC 27853; assay type: functional
Pseudomonas aeruginosa [16] = test: Antibacterial activity against multidrug resistant Pseudomonas aeruginosa 025; assay type: functional
Saccharomyces cerevisiae = test: Antifungal activity against Saccharomyces cerevisiae MTCC 170; assay type: functional
Candida albicans = test: Antifungal activity against Candida albicans MTCC 227; assay type: functional

For COc1cccc2c1C(=O)c1c(O)c3c(c(O)c1C2=O)C[C@@](O)(C(=O)CO)C[C@@H]3O[C@H]1C[C@H](N)[C@H](O)[C@H](C)O1 [DOXORUBICIN], the “growth inhibition (GI)” value (HepG2 [1]) was 79.1%, the IC50 (HepG2 [2]) was 5.4 µM and the “growth inhibition (GI)” value (HeLa [3]) was 76.1%. The “growth inhibition (GI)” value (MDA-MB-231) was 76%, the IC50 (DU-145) was 1.8 µM and the IC50 (HCT-116 [4]) was 2.4 µM. The IC50 (MDA-MB-435) was 0.09 µM and the IC50 (SK-N-SH) was 6.3 µM.
CCOC(=O)C1=C(N)Oc2cc(C)oc(=O)c2C12C(=O)N(Cc1ccccc1)c1ccccc12 (configuration not stated) gave an IC50 [5] of 126 µM.
Cc1noc([C@@H]2[C@H]3CCCN3[C@]3(C(=O)N(C)c4ccc(F)cc43)[C@@]23C(=O)N(C)c2ccccc23)c1[N+](=O)[O-] gave an IC50 (K562) of 25 µM, an IC50 (A549 [6]) of 39.7 µM and an IC50 (PC-3) of 51.6 µM.
CC1(C)CC(=O)C2=C(C1)OC(N)=C(C#N)C21C(=O)N(CCCCCCCCCCBr)c2ccccc21 (configuration not stated) showed an IC50 [7] of 2.5 µM.
In the case of Cc1nn(-c2ccccc2)c2c1C1(C(=O)Nc3ccc([N+](=O)[O-])cc31)C1=C(CC(C)(C)CC1=O)O2 (configuration not stated), the MIC (Staphylococcus aureus) is reported as 32 µg/mL (≈ 68 µM), the MIC (Escherichia coli) is reported as 128 µg/mL (≈ 272 µM) and the MIC (Bacillus subtilis) is reported as 64 µg/mL (≈ 136 µM).
Cc1noc([C@H]2[C@H](c3ccc(Cl)cc3Cl)CN(C)[C@]23C(=O)Nc2ccc(Cl)cc23)c1[N+](=O)[O-] showed an IC50 (K562) of 10.7 µM, an IC50 (A549 [6]) of 21.5 µM and an IC50 (PC-3) of 13.1 µM.
For N=C(N)c1ccc(OCCCCCOc2ccc(C(=N)N)cc2)cc1 [PENTAMIDINE], the MIC (Leishmania major) was 5.22 µM (≈ 1.78 µg/mL).
For CCOC(=O)C1=C(C(=O)OCC)C2(C(=O)Nc3ccccc32)N2CCCC12 (configuration not stated), the IC50 (HeLa [8]) was 8.3 µM, the IC50 (MCF7) was 3.3 µM and the IC50 (A549 [9]) was 2 µM.
In the case of O=C(c1c[nH]c2ccccc12)[C@@H]1[C@@H](c2ccc(Cl)cc2Cl)[C@@H]2CSCN2[C@@]12C(=O)Nc1ccccc12, the IC50 (HCT-116 [10]) is reported as 9 µM, the IC50 (HepG2 [11]) is reported as 7 µM and the IC50 (PC-3) is reported as 6 µM.
With CC1(C)S[C@@H]2[C@H](NC(=O)Cc3ccccc3)C(=O)N2[C@H]1C(=O)O [PENICILLIN G] the MIC (Proteus mirabilis) was 16 µg/mL (≈ 47.8 µM) and the MIC [12] was 1 µg/mL (≈ 2.99 µM).
With O=C1OC(c2ccccc2)=N[C@@]12[C@H](c1ccc(C(F)(F)F)cc1)[C@H]1CCCN1[C@]21C(=O)Nc2ccccc21 the IC50 (cells) was 7.2 µM and the IC50 (Huh-7) was 7.9 µM.
CC1(C)CC(=O)C(=C2SC(N)=C(C#N)C3(S2)C(=O)Nc2ccc(Cl)cc23)C(=O)C1 (configuration not stated) gave an MIC (Proteus mirabilis) of 16 µg/mL (≈ 35.9 µM) and an MIC [12] of 2 µg/mL (≈ 4.48 µM).
In the case of CCOC(=O)C1=C(N)Oc2c(c(=O)oc3cc(Cl)ccc23)C12C(=O)Nc1ccc(C)cc12 (configuration not stated), the IC50 [5] is reported as 118 µM.
With CC1(C)CC(=O)C(=C2SC(N)=C(C#N)C3(S2)C(=O)N(Cc2ccc(Cl)cc2Cl)c2ccccc23)C(=O)C1 (configuration not stated) the MIC (Proteus mirabilis) was 16 µg/mL (≈ 28 µM) and the MIC [12] was 8 µg/mL (≈ 14 µM).
In the case of CNC(=O)c1cc(Oc2ccc(NC(=O)Nc3ccc(Cl)c(C(F)(F)F)c3)cc2)ccn1 [SORAFENIB], the IC50 (cells) is reported as > 10 µM and the IC50 (Huh-7) is reported as 7.1 µM.
In the case of CCn1cc(C(=O)O)c(=O)c2cc(F)c(N3CCNCC3)cc21 [NORFLOXACIN], the MIC (Pseudomonas aeruginosa [13]) is reported as 2 µg/mL (≈ 6.26 µM), the MIC (Pseudomonas aeruginosa [14]) is reported as > 64 µg/mL and the MIC (Pseudomonas aeruginosa [15]) is reported as 2 µg/mL (≈ 6.26 µM). For the same compound, the MIC (Pseudomonas aeruginosa [16]) was > 64 µg/mL.
For CCOC(=O)C1=C(C(=O)OCC)C2(NC1CC(C)C)C(=O)Nc1ccccc12 (configuration not stated), the IC50 (HeLa [8]) was > 50 µM, the IC50 (MCF7) was 5 µM and the IC50 (A549 [9]) was 4.5 µM.
Compound O=NN(CCCl)C(=O)NCCCl [CARMUSTINE] has an IC50 [7] of 3.9 µM.
In the case of COc1ccc(-n2cc(CN3C(=O)C4(C(C#N)=C(N)OC5=C4C(=O)CCC5)c4ccccc43)nn2)cc1 (configuration not stated), the MIC (Saccharomyces cerevisiae) is reported as 64 µg/mL (≈ 129 µM) and the MIC (Candida albicans) is reported as 128 µg/mL (≈ 259 µM).
